Laboratory results from patent publication US10696707B2, “Polyene macrolide derivative” (Shionogi & Co., Ltd., priority 2014, dated 2020).
Converted amounts (≈) assume the structure as drawn. Where two headings read alike, the source gives them in different places.

What was measured:
Assay type in all cases: cell-based
C. albicans ATCC90028 = experiment: Antifungal activity test, MIC by broth microdilution (CLSI M27-A3); conditions: C. albicans ATCC90028, 35° C., 24-48 hours
Procedure: (§1) The Minimum Inhibitory Concentration (MIC) values of the present compound against yeast and filamentous fungi were determined by broth microdilution assay according to the Clinical Laboratory Standards Institute (CLSI) guidelines outlined in documents M27-A3 and M38-A2. The medium used in the assay consisted of RPMI1640 (with glutamine, without bicarbonate) with 2% glucose and 0.165 mol/L morpholinepropanesulfonic acid (MOPS) with pH adjusted to 7.0 using 1 mol/L sodium hydroxide. The present compound was dissolved in dimethyl sulfoxide (DMSO). A series of two-fold dilutions were prepared in DMSO, and then 2 μL of the diluted compound was added to each well in 96-well sterile plates. Each inoculum was prepared by diluting a suspension of Candida spp. or a conidia suspension of Aspergillus spp. suspended in sterile saline solution, and then 200 μL was added to each well to a predetermined concentration using RPMI/MOPS (final concentration for each solution: approximately 1×10^3 cells/mL and approximately 1×10^4 CFU/mL). Plates of Candida spp. and Aspergillus spp. were incubated at 35° C. for 24-48 hours. The MIC was defined as the lowest concentration giving 100% inhibition compared to the growth control.

A. flavus ATCC204304 = experiment: Antifungal activity test, MIC by broth microdilution (CLSI M38-A2); conditions: A. flavus ATCC204304, 35° C., 24-48 hours
Procedure: as §1

A. fumigatus ATCC204305 = experiment: as above; conditions: A. fumigatus ATCC204305, 35° C., 24-48 hours
Procedure: as §1

[1] = broth microdilution, 100% inhibition
[2] = lowest concentration giving 100% inhibition
[3] = Candida albicans, broth microdilution, 100% inhibition, read-out: MIC
[4] = Aspergillus flavus, broth microdilution, 100% inhibition, read-out: MIC
[5] = Aspergillus fumigatus, broth microdilution, 100% inhibition, read-out: MIC

| MIC (C. albicans ATCC90028; [1]) | MIC (A. flavus ATCC204304; [1]) | MIC (A. fumigatus ATCC204305; [1]) | MIC (C. albicans ATCC90028; [3]) | MIC (A. flavus ATCC204304; [4]) | MIC (A. fumigatus ATCC204305; [5]) | SMILES | other results |
| --- | --- | --- | --- | --- | --- | --- | --- |
| 0.5 µg/mL (≈ 0.486 µM) | 1 µg/mL (≈ 0.973 µM) | 0.5 µg/mL (≈ 0.486 µM) | – | – | – | C[C@@H]1[C@H](O)[C@@H](C)/C=C/C=C/C=C/C=C/C=C/C=C/C=C/[C@H](O[C@@H]2O[C@H](C)[C@@H](O)[C@H](N)[C@@H]2O)C[C@@H]2O[C@](O)(C[C@@H](O)C[C@@H](O)[C@H](O)CC[C@@H](O)C[C@@H](O)CC(=O)O[C@H]1C)C[C@H](O)[C@H]2NC(=O)N(O)C[C@H](O)CO [I-275] | – |
| – | – | – | – | – | – | C[C@@H]1[C@H](O)[C@@H](C)/C=C/C=C/C=C/C=C/C=C/C=C/C=C/[C@H](O[C@@H]2O[C@H](C)[C@@H](O)[C@H](NC(=N)N)[C@@H]2O)C[C@@H]2O[C@](O)(C[C@@H](O)C[C@@H](O)[C@H](O)CC[C@@H](O)C[C@@H](O)CC(=O)O[C@H]1C)C[C@H](O)[C@H]2NC(=O)NNC(=O)[C@H](O)CO [I-367] | MIC (C. albicans ATCC90028; Candida albicans, lowest concentration giving 100% inhibition, read-out: MIC): 0.25 µg/mL (≈ 0.231 µM); MIC (A. flavus ATCC204304; Aspergillus flavus, lowest concentration giving 100% inhibition, read-out: MIC): 0.5 µg/mL (≈ 0.462 µM); MIC (A. fumigatus ATCC204305; Aspergillus fumigatus, lowest concentration giving 100% inhibition, read-out: MIC): 1 µg/mL (≈ 0.923 µM) |
| – | – | – | – | – | – | C[C@@H]1[C@H](O)[C@@H](C)/C=C/C=C/C=C/C=C/C=C/C=C/C=C/[C@H](O[C@@H]2O[C@H](C)[C@@H](O)[C@H](NC(=O)CN(C)C)[C@@H]2O)C[C@@H]2O[C@](O)(C[C@@H](O)C[C@@H](O)[C@H](O)CC[C@@H](O)C[C@@H](O)CC(=O)O[C@H]1C)C[C@H](O)[C@H]2NC(=O)NNC(N)=O [I-326] | MIC (C. albicans ATCC90028; [2]): 0.25 µg/mL (≈ 0.231 µM); MIC (A. flavus ATCC204304; [2]): 1 µg/mL (≈ 0.925 µM); MIC (A. fumigatus ATCC204305; [2]): 1 µg/mL (≈ 0.925 µM) |
| – | – | – | 0.5 µg/mL (≈ 0.494 µM) | 0.5 µg/mL (≈ 0.494 µM) | 0.5 µg/mL (≈ 0.494 µM) | C[C@@H]1[C@H](O)[C@@H](C)/C=C/C=C/C=C/C=C/C=C/C=C/C=C/[C@H](O[C@@H]2O[C@H](C)[C@@H](O)[C@H](N)[C@@H]2O)C[C@@H]2O[C@](O)(C[C@@H](O)C[C@@H](O)[C@H](O)CC[C@@H](O)C[C@@H](O)CC(=O)O[C@H]1C)C[C@H](O)[C@H]2NC(=O)NOCC(=O)O [I-278] | – |
| – | – | – | 0.5 µg/mL (≈ 0.488 µM) | 0.5 µg/mL (≈ 0.488 µM) | 1 µg/mL (≈ 0.976 µM) | C[C@@H]1[C@H](O)[C@@H](C)/C=C/C=C/C=C/C=C/C=C/C=C/C=C/[C@H](O[C@@H]2O[C@H](C)[C@@H](O)[C@H](N)[C@@H]2O)C[C@@H]2O[C@](O)(C[C@@H](O)C[C@@H](O)[C@H](O)CC[C@@H](O)C[C@@H](O)CC(=O)O[C@H]1C)C[C@H](O)[C@H]2NC(=O)N1C[C@@H](O)[C@H](O)C1 [I-260] | – |
| – | – | – | 0.5 µg/mL (≈ 0.45 µM) | 1 µg/mL (≈ 0.899 µM) | 0.5 µg/mL (≈ 0.45 µM) | C[C@@H]1[C@H](O)[C@@H](C)/C=C/C=C/C=C/C=C/C=C/C=C/C=C/[C@H](O[C@@H]2O[C@H](C)[C@@H](O)[C@H](N)[C@@H]2O)C[C@@H]2O[C@](O)(C[C@@H](O)C[C@@H](O)[C@H](O)CC[C@@H](O)C[C@@H](O)CC(=O)O[C@H]1C)C[C@H](O)[C@H]2NC(=O)N1C[C@@](O)(C(=O)O)[C@@](O)(C(=O)O)C1 [I-298] | – |
| 0.25 µg/mL (≈ 0.251 µM) | 0.5 µg/mL (≈ 0.503 µM) | 1 µg/mL (≈ 1.01 µM) | – | – | – | C[C@@H]1[C@H](O)[C@@H](C)/C=C/C=C/C=C/C=C/C=C/C=C/C=C/[C@H](O[C@@H]2O[C@H](C)[C@@H](O)[C@H](N)[C@@H]2O)C[C@@H]2O[C@](O)(C[C@@H](O)C[C@@H](O)[C@H](O)CC[C@@H](O)C[C@@H](O)CC(=O)O[C@H]1C)C[C@H](O)[C@H]2NC(=O)N1CC(O)C1 [I-166] | – |
| 0.25 µg/mL (≈ 0.244 µM) | 1 µg/mL (≈ 0.977 µM) | 1 µg/mL (≈ 0.977 µM) | – | – | – | C[C@@H]1[C@H](O)[C@@H](C)/C=C/C=C/C=C/C=C/C=C/C=C/C=C/[C@H](O[C@@H]2O[C@H](C)[C@@H](O)[C@H](N)[C@@H]2O)C[C@@H]2O[C@](O)(C[C@@H](O)C[C@@H](O)[C@H](O)CC[C@@H](O)C[C@@H](O)CC(=O)O[C@H]1C)C[C@H](O)[C@H]2NC(=O)NCCNC(=N)N [I-67] | – |
| – | – | – | – | – | – | C[C@@H]1[C@H](O)[C@@H](C)/C=C/C=C/C=C/C=C/C=C/C=C/C=C/[C@H](O[C@@H]2O[C@H](C)[C@@H](O)[C@H](NC(=N)N)[C@@H]2O)C[C@@H]2O[C@](O)(C[C@@H](O)C[C@@H](O)[C@H](O)CC[C@@H](O)C[C@@H](O)CC(=O)O[C@H]1C)C[C@H](O)[C@H]2NC(=O)NCCC(N)=O [I-343] | MIC (C. albicans ATCC90028; [2]): 0.25 µg/mL (≈ 0.238 µM); MIC (A. flavus ATCC204304; [2]): 0.5 µg/mL (≈ 0.476 µM); MIC (A. fumigatus ATCC204305; [2]): 1 µg/mL (≈ 0.951 µM) |
